Laboratory results from US4345938A, “Herbicidal 2-haloacetanilides” (Monsanto Company, priority 1980, dated 1982).
Like-named read-outs stand apart in the source and are kept apart here.

How the values were obtained:
Assay type in all cases: in vivo
Cocklebur = assay: Pre-emergent herbicidal test, Cocklebur; note: ranges in brackets are in %
Source text: (§1) A good grade of top soil is placed in aluminum pans and compacted to a depth of three-eights to one-half inch from the top of the pan. On the top of the soil is placed a number of seeds or vegetative propagules of various plant species. The soil required to level fill the pans after seeding or adding vegetative propagules is weighted into a pan. The soil and a known amount of the active ingredient applied in a solvent or as a wettable powder suspension are thoroughly mixed, and used to cover the prepared pans. After treatment, the pans are moved into a greenhouse bench where they are watered by subirrigation as needed to give adequate moisture for germination and growth.
(§2) Approximately 2 weeks after seeding and treating, the plants were observed and the results recorded. The herbicidal rating was obtained by means of a fixed scale based on the percent injury of each plant species. The ratings are defined as follows: […]

Eleocharis kuroguwai = assay: Field transplant rice test, applied 0 DAT, EK; conditions: 0 h, read-out: Percent Inhibition, EK; for inhibition at 375 g/ha: 0.375 Kg/Ha; for inhibition at 750 g/ha: 0.75 Kg/Ha; for inhibition at 1500 g/ha: 1.5 Kg/Ha; for inhibition at 3000 g/ha: 3.0 Kg/Ha
Procedure: (§3) The test data in Table III for all compounds was obtained under identical test conditions. The weeds used in the tests herein have the following abbreviations in the tables: Echinochloa crus-galli (EC), Monochloria vaginalis (MV), Cyperus Serotinus (CS), Eleocharis Kuroguwai (EK) and Sagittaria trifolia (ST).
(§4) In further comparative tests, a preferred compound of this invention (Example 1) was tested in the field with prior art Compounds A-D. These tests were conducted under conditions reflecting herbicide application times generally favorable to all herbicides in the test. The timing of application of herbicides to transplant rice is very important, whether, as in some instances, prior to transplanting the rice; in other instances, at the time of transplanting or else after transplanting. Application times are conventionally referred to as "days before transplant" (DBT) or "days after transplant" ("DAT"). The field test data in Table IV was obtained from a test in which the herbicides were applied at the time of transplant, i.e., "0 DAT", with observations being made weekly up to six weeks after transplant ("WAT") beginning at two weeks after transplant; for illustrative and representative purposes, only the early, middle and late period observations, i.e., 2 WAT, 4 WAT and 6 WAT, are shown in Table IV. The data in Table IV is for rates of application common to all herbicides in the test, i.e., from 3.0 kg/ha (2.67 lb/A) down to 0.375 kg/ha (0.34 lb/A). All herbicides were applied at their actual or expected use rates, i.e., as granules containing 2.5% by weight herbicide for the compound of Example 1, Compounds B, C and D and 5.0% by weight for Compound A.

Hemp Sesbania = assay: Pre-emergent herbicidal test, Hemp Sesbania; conditions: Table II; note: ranges in brackets are in %
Source text: as §1, §2
(§5) The compounds were further tested by utilizing the above procedure on the following plant species: […]

Wild Buckwheat = assay: Pre-emergent herbicidal test, Wild Buckwheat; conditions: Table II; note: ranges in brackets are in %
Source text: as §1, §2, §5

Sugarbeet = assay: Pre-emergent herbicidal test, Sugarbeet; conditions: Table II; note: ranges in brackets are in %
Source text: as §1, §2, §5

Cyperus serotinus = assay: Greenhouse transplant rice test, CS; conditions: about 3 WAT, read-out: Percent Inhibition, CS; for inhibition at 280 g/ha: 0.28 Kg/Ha; for inhibition at 560 g/ha: 0.56 Kg/Ha; for inhibition at 1120 g/ha: 1.12 Kg/Ha; for inhibition at 2240 g/ha: 2.24 Kg/Ha
Source text: (§6) The test procedure used in this greenhouse test is as follows: Ray silt loam top soil containing about 0.05% by weight of krillium and sifted through a […] screen is fumigated about 5-10 days prior to use. Pots are then filled with said Ray silt loam soil to a level to allow for a 1 in. (2.54 cm) flooding depth. Rice plants (Bluebelle) of 2 to 3 weeks age are transplanted to the pots and bulbs or seeds of the test weeds also planted in the pots. The pots are then flooded and the test chemical applied to the surface of the flood water. The flood water is reduced to allow for germination of the Echinochloa crus-galli (barnyardgrass) seed and subsequently reflooded and maintained in that condition. Observations of percent inhibition using a scale of 0-100% are made about 3 weeks after transplant (WAT).
as §3

Johnsongrass = assay: Pre-emergent herbicidal test, Johnsongrass; conditions: Table I; note: ranges in brackets are in %
Source text: as §1, §2

Monochoria vaginalis = assay: Greenhouse transplant rice test, MV; conditions: Pontederia vaginalis, about 3 WAT, read-out: Percent Inhibition, MV; for inhibition at 280 g/ha: 0.28 Kg/Ha; for inhibition at 560 g/ha: 0.56 Kg/Ha; for inhibition at 1120 g/ha: 1.12 Kg/Ha; for inhibition at 2240 g/ha: 2.24 Kg/Ha
Source text: as §6, §3

Morningglory = assay: Pre-emergent herbicidal test, Morningglory; note: ranges in brackets are in %
Source text: as §1, §2

Sagittaria trifolia = assay: Field transplant rice test, applied 9 DAT, ST; conditions: 216 h, read-out: Percent Inhibition, ST; for inhibition at 375 g/ha: 0.375 Kg/Ha; for inhibition at 750 g/ha: 0.75 Kg/Ha; for inhibition at 1500 g/ha: 1.5 Kg/Ha; for inhibition at 3000 g/ha: 3.0 Kg/Ha
Procedure: as §3, §4
In Table V are presented field data showing the relative performance of the compound of Example 1 and Compounds A-D applied 9 DAT, with observations being made weekly from 3 WAT to 7 WAT; again, for illustrative and representative purposes, only the early, middle and late period observations are reported in Table V, the herbicide rates and concentrations of active ingredients the same as is shown in Table IV.

CCCCOc1cccc(CC)c1N(C)C(=O)CCl [Example 1, N-methyl-2'-n-butoxy-6'-ethyl-2-chloroacetanilide]
Rating, Cocklebur (Cocklebur; Table II, 0.06 kg/h): 0 (0-24)
Rating, Cocklebur (Cocklebur; Table II, 5.6 kg/h): 0 (0-24)
inhibition at 375 g/ha (Eleocharis kuroguwai; 2 WAT): 73%
inhibition at 375 g/ha (Eleocharis kuroguwai; 4 WAT): 40%
inhibition at 375 g/ha (Eleocharis kuroguwai; 6 WAT): 3%
inhibition at 750 g/ha (Eleocharis kuroguwai; 2 WAT): 82%
inhibition at 750 g/ha (Eleocharis kuroguwai; 4 WAT): 75%
inhibition at 750 g/ha (Eleocharis kuroguwai; 6 WAT): 50%
inhibition at 1500 g/ha (Eleocharis kuroguwai; 2 WAT): 87%
inhibition at 1500 g/ha (Eleocharis kuroguwai; 4 WAT): 83%
inhibition at 1500 g/ha (Eleocharis kuroguwai; 6 WAT): 37%
inhibition at 3000 g/ha (Eleocharis kuroguwai; 2 WAT): 97%
inhibition at 3000 g/ha (Eleocharis kuroguwai; 4 WAT): 92%
inhibition at 3000 g/ha (Eleocharis kuroguwai; 6 WAT): 65%
Rating, Hemp Sesbania (Hemp Sesbania; 0.006 kg/h): 2 (50-74)
Rating, Hemp Sesbania (Hemp Sesbania; 0.01 kg/h): 2 (50-74)
Rating, Hemp Sesbania (Hemp Sesbania; 0.06 kg/h): 3 (75-100)
Rating, Hemp Sesbania (Hemp Sesbania; 0.28 kg/h): 3 (75-100)
Rating, Hemp Sesbania (Hemp Sesbania; 1.12 kg/h): 3 (75-100)
Rating, Hemp Sesbania (Hemp Sesbania; 5.6 kg/h): 3 (75-100)
Rating, Wild Buckwheat (Wild Buckwheat; 0.006 kg/h): 0 (0-24)
Rating, Wild Buckwheat (Wild Buckwheat; 0.01 kg/h): 1 (25-49)
Rating, Wild Buckwheat (Wild Buckwheat; 0.06 kg/h): 1 (25-49)
Rating, Wild Buckwheat (Wild Buckwheat; 0.28 kg/h): 1 (25-49)
Rating, Wild Buckwheat (Wild Buckwheat; 1.12 kg/h): 2 (50-74)
Rating, Wild Buckwheat (Wild Buckwheat; 5.6 kg/h): 3 (75-100)
Rating, Sugarbeet (Sugarbeet; 0.006 kg/h): 0 (0-24)
Rating, Sugarbeet (Sugarbeet; 0.01 kg/h): 0 (0-24)
Rating, Sugarbeet (Sugarbeet; 0.06 kg/h): 0 (0-24)
Rating, Sugarbeet (Sugarbeet; 0.28 kg/h): 1 (25-49)
Rating, Sugarbeet (Sugarbeet; 1.12 kg/h): 2 (50-74)
Rating, Sugarbeet (Sugarbeet; 5.6 kg/h): 3 (75-100)
inhibition at 280 g/ha (Cyperus serotinus): 85%
inhibition at 560 g/ha (Cyperus serotinus): 100%
inhibition at 1120 g/ha (Cyperus serotinus): 100%
inhibition at 2240 g/ha (Cyperus serotinus): 100%
Rating, Johnsongrass (Johnsongrass; 5.6 kg/h): 3 (75-100)
Rating, Johnsongrass (Johnsongrass; 11.2 kg/h): 3 (75-100)
inhibition at 280 g/ha (Monochoria vaginalis): 100%
inhibition at 560 g/ha (Monochoria vaginalis): 100%
inhibition at 1120 g/ha (Monochoria vaginalis): 100%
inhibition at 2240 g/ha (Monochoria vaginalis): 100%
Rating, Morningglory (Morningglory; Table I, 5.6 kg/h): 2 (50-74)
Rating, Morningglory (Morningglory; Table I, 11.2 kg/h): 1 (25-49)
Rating, Morningglory (Morningglory; Table II, 0.006 kg/h): 0 (0-24)
Rating, Morningglory (Morningglory; Table II, 0.06 kg/h): 0 (0-24)
Rating, Morningglory (Morningglory; Table II, 0.28 kg/h): 0 (0-24)
Rating, Morningglory (Morningglory; Table II, 1.12 kg/h): 2 (50-74)
Rating, Morningglory (Morningglory; Table II, 5.6 kg/h): 3 (75-100)
inhibition at 375 g/ha (Sagittaria trifolia; 3 WAT): 50%
inhibition at 375 g/ha (Sagittaria trifolia; 5 WAT): 23%
inhibition at 375 g/ha (Sagittaria trifolia; 7 WAT): 18%
inhibition at 750 g/ha (Sagittaria trifolia; 3 WAT): 43%
inhibition at 750 g/ha (Sagittaria trifolia; 5 WAT): 33%
inhibition at 750 g/ha (Sagittaria trifolia; 7 WAT): 13%
inhibition at 1500 g/ha (Sagittaria trifolia; 3 WAT): 40%
inhibition at 1500 g/ha (Sagittaria trifolia; 5 WAT): 13%
inhibition at 1500 g/ha (Sagittaria trifolia; 7 WAT): 7%
inhibition at 3000 g/ha (Sagittaria trifolia; 3 WAT): 72%
inhibition at 3000 g/ha (Sagittaria trifolia; 5 WAT): 43%
inhibition at 3000 g/ha (Sagittaria trifolia; 7 WAT): 38%

CCCCOc1cccc(CC)c1N(CC)C(=O)CCl [Example 2, N-ethyl-2'-n-butoxy-6'-ethyl-2-chloroacetanilide]
Rating, Cocklebur (Cocklebur; Table I, 5.6 kg/h): 0 (0-24)
Rating, Cocklebur (Cocklebur; Table I, 11.2 kg/h): 0 (0-24)
Rating, Cocklebur (Cocklebur; Table II, 0.01 kg/h): 0 (0-24)
Rating, Cocklebur (Cocklebur; Table II, 0.06 kg/h): 0 (0-24)
Rating, Cocklebur (Cocklebur; Table II, 0.28 kg/h): 0 (0-24)
Rating, Cocklebur (Cocklebur; Table II, 1.12 kg/h): 0 (0-24)
Rating, Cocklebur (Cocklebur; Table II, 5.6 kg/h): 1 (25-49)
Rating, Hemp Sesbania (Hemp Sesbania; 0.01 kg/h): 0 (0-24)
Rating, Hemp Sesbania (Hemp Sesbania; 0.06 kg/h): 0 (0-24)
Rating, Hemp Sesbania (Hemp Sesbania; 0.28 kg/h): 0 (0-24)
Rating, Hemp Sesbania (Hemp Sesbania; 1.12 kg/h): 2 (50-74)
Rating, Hemp Sesbania (Hemp Sesbania; 5.6 kg/h): 2 (50-74)
Rating, Wild Buckwheat (Wild Buckwheat; 0.01 kg/h): 0 (0-24)
Rating, Wild Buckwheat (Wild Buckwheat; 0.06 kg/h): 0 (0-24)
Rating, Wild Buckwheat (Wild Buckwheat; 0.28 kg/h): 0 (0-24)
Rating, Wild Buckwheat (Wild Buckwheat; 1.12 kg/h): 1 (25-49)
Rating, Wild Buckwheat (Wild Buckwheat; 5.6 kg/h): 2 (50-74)
Rating, Sugarbeet (Sugarbeet; 0.01 kg/h): 0 (0-24)
Rating, Sugarbeet (Sugarbeet; 0.06 kg/h): 0 (0-24)
Rating, Sugarbeet (Sugarbeet; 0.28 kg/h): 1 (25-49)
Rating, Sugarbeet (Sugarbeet; 1.12 kg/h): 2 (50-74)
Rating, Sugarbeet (Sugarbeet; 5.6 kg/h): 2 (50-74)
inhibition at 280 g/ha (Cyperus serotinus): 100%
inhibition at 560 g/ha (Cyperus serotinus): 100%
inhibition at 1120 g/ha (Cyperus serotinus): 100%
inhibition at 2240 g/ha (Cyperus serotinus): 100%
Rating, Johnsongrass (Johnsongrass; 5.6 kg/h): 2 (50-74)
Rating, Johnsongrass (Johnsongrass; 11.2 kg/h): 3 (75-100)
inhibition at 280 g/ha (Monochoria vaginalis): 100%
inhibition at 560 g/ha (Monochoria vaginalis): 100%
inhibition at 1120 g/ha (Monochoria vaginalis): 100%
inhibition at 2240 g/ha (Monochoria vaginalis): 100%
Rating, Morningglory (Morningglory; Table I, 5.6 kg/h): 0 (0-24)
Rating, Morningglory (Morningglory; Table I, 11.2 kg/h): 2 (50-74)
Rating, Morningglory (Morningglory; Table II, 0.01 kg/h): 0 (0-24)
Rating, Morningglory (Morningglory; Table II, 0.06 kg/h): 0 (0-24)
Rating, Morningglory (Morningglory; Table II, 0.28 kg/h): 0 (0-24)
Rating, Morningglory (Morningglory; Table II, 1.12 kg/h): 0 (0-24)
Rating, Morningglory (Morningglory; Table II, 5.6 kg/h): 1 (25-49)
